Experimental data from patent publication EP4567032A1, “KIF18A INHIBITOR COMPOUND, AND PHARMACEUTICAL COMPOSITION AND PREPARATION METHOD THEREFOR AND USE THEREOF” (Changchun Genescience Pharmaceutical Co., Ltd., priority 2022, dated 2024).

Target: T1, KIF18A (Homo sapiens, UniProt Q8NI77)
T1 sequence (Q8NI77 1-898): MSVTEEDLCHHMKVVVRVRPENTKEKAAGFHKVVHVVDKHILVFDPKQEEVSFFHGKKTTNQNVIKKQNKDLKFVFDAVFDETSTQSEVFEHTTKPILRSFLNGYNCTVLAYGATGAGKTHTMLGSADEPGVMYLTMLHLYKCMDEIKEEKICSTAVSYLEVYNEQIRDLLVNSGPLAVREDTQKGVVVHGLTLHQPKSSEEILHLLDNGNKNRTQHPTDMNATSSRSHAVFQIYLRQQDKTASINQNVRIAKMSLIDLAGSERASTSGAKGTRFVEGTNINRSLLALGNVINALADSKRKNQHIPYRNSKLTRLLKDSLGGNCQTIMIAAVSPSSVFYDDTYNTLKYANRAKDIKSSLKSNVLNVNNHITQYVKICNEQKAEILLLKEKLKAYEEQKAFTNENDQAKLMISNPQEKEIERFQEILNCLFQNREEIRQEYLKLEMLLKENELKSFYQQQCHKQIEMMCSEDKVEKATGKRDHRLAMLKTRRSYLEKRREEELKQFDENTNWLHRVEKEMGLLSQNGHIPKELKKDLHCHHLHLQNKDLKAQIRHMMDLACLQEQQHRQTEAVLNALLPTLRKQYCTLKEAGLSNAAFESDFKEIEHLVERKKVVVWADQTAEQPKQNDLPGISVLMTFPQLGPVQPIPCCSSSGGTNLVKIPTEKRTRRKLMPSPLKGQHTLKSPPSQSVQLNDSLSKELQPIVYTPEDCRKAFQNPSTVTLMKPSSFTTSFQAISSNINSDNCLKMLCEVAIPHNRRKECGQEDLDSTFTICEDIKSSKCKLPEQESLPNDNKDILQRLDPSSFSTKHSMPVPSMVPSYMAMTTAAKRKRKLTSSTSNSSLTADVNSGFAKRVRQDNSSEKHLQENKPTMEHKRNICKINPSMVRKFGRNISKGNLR
Experiment: KIF18A enzyme activity test (ADP Glo)
Type: biochemical
Settings: ADP Glo luminescence, 60 min reaction at room temperature, 1% DMSO
Procedure: Test name: KIF18A enzyme activity test
• 1) Compound dilution and treatment: The final concentrations of AM-5308: 10000, 3333.3, 1111.1, 370.3, 123.4, 41.1, 13.7, 4.5, 1.5, 0.5 nM, the final testing concentrations of the testing compound: 10000, 3333.3, 1111.1, 370.3, 123.4, 41.1, 13.7, 4.5, 1.5 and 0.5 nM. • 2) To each well of the reaction plate, 100 nL of the diluted compound stock solution was transferred using Echo 655. The final concentration of DMSO was 1%. • 3) The reaction plate was sealed with a sealing membrane and centrifuged at 1000g for 1 min. • 4) A 2× enzyme solution was prepared with 1× reaction buffer. • 5) To each well of the reaction plate, 5 µL of 2×enzyme solution was added. The plate was sealed with a sealing membrane, centrifuged at 1000g for 1 min and left at room temperature for 15 min. • 6) A 2× ATP solution was prepared with 1× reaction buffer. • 7) To the reaction plate, 5 µL of 2×ATP solution was added, the plate was centrifuged at 1000g for 1 min, and the reaction was started. • 8) The system was allowed to react at room temperature for 60 min. • 9) 10 µL of ADP Glo reagent was added. The system was centrifuged at 1000 g for 1 min and incubated at room temperature for 60 min. • 10) 20 µL of kinase detection reagent was added. The system was centrifuged at 1000 g for 1 min, and incubated at room temperature for 60 min. • 11) The system was centrifuged at 1000 g for 1 min. • 12) The luminescence signals were read on Envision 2104.
The inhibition percentage is calculated as follows: %inhibition = 100−(Signalcmpd−SignalAve_PC)/(SignalAve_VC−SignalAve_PC) × 100 [formula] • Signalcmpd: Average value of the test compound on the reaction plate. • SignalAve_PC: Average value of the positive control (AM-5308) on the reaction plate. • SignalAve_VC: Average value of the negative control (DMSO) on the reaction plate.
IC50 was calculated and the dose-effect curve was fit: The IC50 of the compound was obtained by non-linear fitting formula with GraphPad 8.0.
Z factor > 0.5; S/B > 2. Table 2 Enzyme activity data for the compound of the present application

In order of falling IC50:
1. O=C(Nc1cccc2c1nc1n2CCCC1)c1ccc(NS(=O)(=O)CCO)cc1N1CCC2(CC1)CC2 [Compound 22, 4-(2-hydroxyethanesulfonylamino)-2-(6-azaspiro[2.5]octan-6-yl)-N-(benzo[4,5]imidazo[1,2-a]piperidin-6-yl)benzamide]  21.3 nM
2. COc1ccc2c(NC(=O)c3ccc(NS(=O)(=O)CCO)cc3N3CCC4(CC3)CC4)cccc2c1 [Compound 1, 2-{6-azaspiro[2.5]octan-6-yl}-4-(2-hydroxyethanesulfonylamino)-N-(6-methoxynaphthalen-1-yl)benzamide]  21.2 nM

System: OVCAR-3 cells
Experiment: imaging-based nuclear count analysis (NCA) in OVCAR-3 cells
Type: cell-based
Settings: Homo sapiens, 96 h, cultured 4 days, Hoechst 33342 nuclear count, 0.1% DMSO
Procedure: Test name: imaging-based nuclear count analysis (NCA) in OVCAR-3 cells
• a) When the cell confluence reached 80%-90%, the cells were treated. • b) The cells were resuspended in a medium and then counted and diluted at a desired density. • c) A cell suspension containing appropriate cells was added to the 384-well plate at 30 µL/well: 600 cells/well.
• a) 30 µL of 8% fixative (final concentration 4%) was added and the plate was incubated at room temperature for 30 min. • b) The plate was centrifuged at 1000RPM for 30s. • c) The plate was washed twice with 60 µl/well PBS. • d) After immobilization, the cells were permeabilized and stained in 60 µL of a wash buffer containing 2 µg/mL Hoechst 33342 DNA dye (1% BSA, 0.2% Triton X-100, 1X PBS). • e) The plate was sealed and incubated at room temperature in the dark for 1 h. • f) It was washed with PBS 3 times. • g) 50µLPBS/well was added and the plate was scanned using HCS. • h) Data acquisition and detection
High-reading control wells: cells + 30 nL DMSO; low-reading control wells: 10 µM AM-5308.
IC50 (nM) was calculated using GraphPad Prism 8 software and the effect-dose curves of the compound were plotted. Table 1 Bioactivity data of the compound of the present application

In order of falling IC50:
1. O=C(Nc1cccc2ccc(F)cc12)c1ccc(NS(=O)(=O)CCO)cc1N1CCC2(CC1)CC2 [Compound 6, 2-{6-azaspiro[2.5]octan-6-yl}-N-(7-fluoronaphthalen-1-yl)-4-(2-hydroxyethanesulfonylamino) benzamide]  976 nM
2. Cc1cc(NC(=O)c2ccc(NS(=O)(=O)CCO)cc2N2CCC3(CC2)CC3)nc2c1nc1n2CC(F)(F)CC1 [Compound 64, N-(8,8-difluoro-4-methyl-pyrido[2,3-d]imidazo[1,2-a]piperidin-2-yl)-4-(2-hydroxyethanesulfonylamino)-2-(6-azaspiro[2.5]octan-6-yl)benzamide]  763 nM
3. O=C(Nc1cccc2ccccc12)c1ccc(NS(=O)(=O)CCO)cc1N1CCC2(CC1)CC2 [Compound 2, 2-{6-azaspiro[2.5]octan-6-yl}-4-(2-hydroxyethanesulfonylamino) -N-(naphthalen-1-yl)benzamide]  568 nM
4. Cc1ccc2c(NC(=O)c3ccc(NS(=O)(=O)CCO)cc3N3CCC4(CC3)CC4)cccc2c1 [Compound 4, 2-{6-azaspiro[2.5]octan-6-yl}-4-(2-hydroxyethanesulfonylamino) -N-(6-methylnaphthalen-1-yl)benzamide]  478 nM
5. O=C(Nc1cccc2cc(C(F)(F)F)ccc12)c1ccc(NS(=O)(=O)CCO)cc1N1CCC2(CC1)CC2 [Compound 7, 2-{6-azaspiro[2.5]octan-6-yl}-4-(2-hydroxyethanesulfonylamino) -N-(6-(trifluoromethyl)naphthalen-1-yl)benzamide]  458 nM
6. O=C(Nc1cccc2cc(Cl)ccc12)c1ccc(NS(=O)(=O)CCO)cc1N1CCC2(CC1)CC2 [Compound 5, {6-azaspiro[2.5]octan-6-yl}-N-(6-chloronaphthalen-1-yl)-4-(2-hydroxyethanesulfonylamino) benzamide]  369 nM
7. O=C(Nc1cccc2c1CCC1(CCCC1)C2)c1ccc(NS(=O)(=O)CCO)cc1N1CCC2(CC1)CC2 [Compound 51, 2-{6-azaspiro[2.5]octan-6-yl}-N-{3',4'-dihydro-1'H-spiro[cyclopentane-1,2'-naphthalen]-5'-yl}-4-(2-hydroxyethanesulfonylamino)benzamide]  258 nM
8. O=C(Nc1cccc2c1nc1n2CCCCC1)c1ccc(NS(=O)(=O)CCO)cc1C1=CCC2(CC1)CC2 [Compound 108, 4-(2-hydroxyethanesulfonylamino) -2-(spiro[2.5]oct-5-en-6-yl)-N-(7,8,9,10-tetrahydro-6H-benzo[4,5]imidazo[1,2-a]azepin-4-yl)benzamide]  183 nM
9. COc1ccc2c(NC(=O)c3ccc(NS(=O)(=O)CCO)cc3N3CCC4(CC3)CC4)cccc2c1 [Compound 1, 2-{6-azaspiro[2.5]octan-6-yl}-4-(2-hydroxyethanesulfonylamino)-N-(6-methoxynaphthalen-1-yl)benzamide]  163 nM
10. O=C(Nc1cccc2c1oc1ccccc12)c1ccc(NS(=O)(=O)CCO)cc1N1CCC2(CC1)CC2 [Compound 111, N-(dibenzo[b,d]furan-4-yl)-4-(2-hydroxyethanesulfonylamino)-2-(6-azaspiro[2.5]octan-6-yl)benzamide]  161 nM
11. O=C(Nc1cccc2c1nc1n2CCCC1)c1ccc(NS(=O)(=O)CCO)cc1N1CCC2(CC1)CC2 [Compound 22, 4-(2-hydroxyethanesulfonylamino)-2-(6-azaspiro[2.5]octan-6-yl)-N-(benzo[4,5]imidazo[1,2-a]piperidin-6-yl)benzamide]  143 nM
12. CC1CCn2c1nc1c(NC(=O)c3ccc(NS(=O)(=O)CCO)cc3N3CCC4(CC3)CC4)cccc12 (stereo not drawn) [Compound 106, 4-(2-hydroxyethanesulfonylamino) -N-(3-methyl-2,3-dihydro-1H-benzo[d]pyrrolo[1,2-a]imidazol-5-yl)-2-(6-azaspiro[2.5]octan-6-yl)benzamide]  125 nM
13. O=C(Nc1ccnc2cc(C3CC3)ccc12)c1ccc(NS(=O)(=O)CCO)cc1N1CCC2(CC1)CC2 [Compound 112, 2-{6-azaspiro[2.5]octan-6-yl}-N-(7-cyclopropylquinolin-4-yl)-4-(2-hydroxyethylsulfonylamino)benzamide]  117 nM
14. Cc1cc(NC(=O)c2ccc(NS(=O)(=O)CCO)cc2N2CCC3(CC2)CC3)c2nc3n(c2c1)[C@H]1CC[C@@H]3C1 [Compound 99, 4-(2-hydroxyethanesulfonylamino)-N-((1S,4R)-8-methyl-1,2,3,4-tetrahydro-1,4-methylenebenzo[4,5]imidazo[1,2-a]pyridin-6-yl)-2-(6-azaspiro[2.5]octan-6-yl)benzamide]  109 nM
15. COc1ccc2c(NC(=O)c3ccc(NS(=O)(=O)CCO)cc3N3CCC4(CC3)CC4)ccnc2c1 [Compound 95]  98.9 nM
16. O=C(Nc1cc(F)cc2c1nc1n2[C@H]2CC[C@@H]1C2)c1ccc(NS(=O)(=O)CCO)cc1N1CCC2(CC1)CC2 [Compound 113a, N-((1S,4R)-8-fluoro-1,2,3,4-tetrahydro-1,4-methylenebenzo[4,5]imidazo [1,2-a]pyridin-6-yl)4-(2-hydroxyethanesulfonylamino) -2-(6-azaspiro[2.5]octan-6-yl)benzamide]  97.9 nM
17. O=C(Nc1cccc2c1CCC1(CC1)C2)c1ccc(NS(=O)(=O)CCO)cc1N1CCC2(CC1)CC2 [Compound 56, 2-{6-azaspiro[2.5]octan-6-yl}-N-{3',4'-dihydro-1'H-spiro[cyclopropane-1,2'-naphthalen]-5'-yl}-4-(2-hydroxyethanesulfonylamino)benzamide]  73.1 nM
18. O=C(Nc1cccc2c1nc1n2CCC1(F)F)c1ccc(NS(=O)(=O)CCO)cc1C1=CCC2(CC1)CC2 [Compound 90, N-(3,3-difluoro-2,3-dihydro-1H-benzo[d]pyrrolo[1,2-a]imidazol-5-yl)-4-(2-hydroxyethanesulfonylamino)-2-(spiro[2.5]oct-5-en-6-yl)benzamide]  71.2 nM

Same assay, conditions: cultured 4 days, Hoechst 33342 nuclear count, 0.1% DMSO

`O=C(Nc1cccc2c1nc1n2C2CCC1CC2)c1ccc(NS(=O)(=O)CCO)cc1N1CCC2(CC1)CC2` [Compound 100, 4-(2-hydroxyethanesulfonylamino)-2-(6-azaspiro[2.5]octan-6-yl)-N-(1,2,3,4-tetrahydro-1,4-ethylbenzo[4,5]imidazo[1,2-a]pyridin-6-yl)benzamide] showed an IC50 of 110 nM.
